Activity calls are given as the source filed them. The rule behind the calls is not given here.
What was measured:
[1] = biological target: Homeodomain-interacting protein kinase 1 (Homo sapiens) (UniProt Q86Z02); test: Inhibition of HIPK1 (unknown origin) at 100 nM by ADP-Glo assay relative to control
NCI-H1299 [2] = test: Induction of autophagy in human NCI-H1299 cells assessed as downregulation of p62 expression at 0.1 to 1 uM incubated for 48 hrs by Western blotting analysis; format: functional, cell-based; settings: dose 0.1-1 µM
NCI-H1299 [3] = test: Induction of apoptosis in human NCI-H1299 cells assessed as late apoptotic cells at 0.5 uM incubated for 24 hrs by annexin V-FITC/PI staining based flow cytometric analysis (reference value: 2.23 %); format: functional
NCI-H1299 [4] = test: Induction of autophagy in human NCI-H1299 cells assessed as effect on LC3II protein expression at 0.1 to 1 uM incubated for 48 hrs by Western blotting analysis; format: functional, cell-based; settings: dose 0.1-1 µM
NCI-H1299 [5] = test: Induction of apoptosis in human NCI-H1299 cells assessed as downregulation of mTOR expression incubated for 12 hrs by Western blotting analysis; format: functional, cell-based
NCI-H1299 [6] = test: Induction of apoptosis in human NCI-H1299 cells assessed as viable cells at 2.5 uM incubated for 24 hrs by annexin V-FITC/PI staining based flow cytometric analysis (reference value: 95 %); format: functional; settings: read-out: Activity
NCI-H1299 [7] = test: Induction of apoptosis in human NCI-H1299 cells assessed as early apoptotic cells at 0.5 uM incubated for 24 hrs by annexin V-FITC/PI staining based flow cytometric analysis (reference value: 0.49 %); format: functional
NCI-H1299 [8] = test: Induction of apoptosis in human NCI-H1299 cells assessed as necrotic cells at 1 uM incubated for 24 hrs by annexin V-FITC/PI staining based flow cytometric analysis (reference value: 2.28 %); format: functional
NCI-H1299 [9] = test: Induction of apoptosis in human NCI-H1299 cells assessed as downregulation of AKT expression incubated for 12 hrs by Western blotting analysis; format: functional, cell-based
NCI-H1299 [10] = test: Induction of apoptosis in human NCI-H1299 cells assessed as downregulation of MCL-1 expression at 0.1 to 1 uM incubated for 48 hrs by Western blotting analysis; format: functional, cell-based; settings: dose 0.1-1 µM
NCI-H1299 [11] = test: Induction of apoptosis in human NCI-H1299 cells assessed as necrotic cells at 0.25 uM incubated for 24 hrs by annexin V-FITC/PI staining based flow cytometric analysis (reference value: 2.28 %); format: functional
NCI-H1975 = test: cells; settings: Homo sapiens, NCI-H1975, 48 h
Description: Antiproliferative activity against human NCI-H1975 cells assessed as inhibition of cell growth incubated for 48 hrs by MTT assay

[12] = tested on: Osimertinib-resistant NCI-H1975 cell; test: cells; settings: Homo sapiens, 96 h
Description: Antiproliferative activity against human Osimertinib-resistant NCI-H1975 cell cultured as 3D spheroids assessed as inhibition of cell growth incubated for 96 hrs by CellTiter-Glo luminescence assay

NCI-H1299 [13] = test: Induction of apoptosis in human NCI-H1299 cells assessed as late apoptotic cells at 0.1 uM incubated for 24 hrs by annexin V-FITC/PI staining based flow cytometric analysis (reference value: 2.23 %); format: functional
NCI-H1299 [14] = test: Induction of autophagy in human NCI-H1299 cells assessed as effect on LC3I protein expression at 0.1 to 1 uM incubated for 48 hrs by Western blotting analysis; format: functional, cell-based; settings: dose 0.1-1 µM
NCI-H1299 [15] = test: Inhibition of Wnt pathway in human NCI-H1299 cells assessed as downregulation of c-Myc expression at 0.1 to 1 uM incubated for 48 hrs by Western blotting analysis; format: cell-based; settings: dose 0.1-1 µM
[16] = biological target: Dual specificity tyrosine-phosphorylation-regulated kinase 1B (Homo sapiens) (UniProt Q9Y463); test: Inhibition of DYRK1B (unknown origin) at 100 nM by ADP-Glo assay relative to control
Chain of Dual specificity tyrosine-phosphorylation-regulated kinase 1B (Homo sapiens) (Q9Y463 whole entry, looked up): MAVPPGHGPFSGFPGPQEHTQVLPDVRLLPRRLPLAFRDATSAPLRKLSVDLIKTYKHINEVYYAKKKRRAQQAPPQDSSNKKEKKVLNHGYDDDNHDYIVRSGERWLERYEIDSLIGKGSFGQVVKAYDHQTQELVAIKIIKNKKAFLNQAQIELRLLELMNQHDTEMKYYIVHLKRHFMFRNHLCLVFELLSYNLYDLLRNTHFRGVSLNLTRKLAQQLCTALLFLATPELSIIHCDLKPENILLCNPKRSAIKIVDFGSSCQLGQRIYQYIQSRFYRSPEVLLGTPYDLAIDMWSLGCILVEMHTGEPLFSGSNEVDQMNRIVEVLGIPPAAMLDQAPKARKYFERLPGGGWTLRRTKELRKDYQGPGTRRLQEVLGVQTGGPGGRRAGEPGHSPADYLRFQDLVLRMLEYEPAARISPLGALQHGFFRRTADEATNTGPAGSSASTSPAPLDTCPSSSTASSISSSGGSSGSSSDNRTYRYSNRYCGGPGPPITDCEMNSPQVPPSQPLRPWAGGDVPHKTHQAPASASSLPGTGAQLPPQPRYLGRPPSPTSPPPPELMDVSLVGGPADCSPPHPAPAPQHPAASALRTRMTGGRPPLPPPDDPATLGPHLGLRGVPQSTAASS

NCI-H1299 [17] = test: Inhibition of colony formation in human NCI-H1299 cells incubated for 7 days by crystal violet staining based analysis; format: functional, cell-based; settings: time 7.0 day
[18] = biological target: T1, Dual specificity protein kinase CLK1 (Homo sapiens, UniProt P49759); test: Inhibition of CLK in human NCI-H1299 cells assessed as downregulation of SRSF4 phosphorylation at 0.1 to 1 uM incubated for 1 hr by Western blotting analysis; format: cell-based; settings: dose 0.1-1 µM
T1 sequence (P49759 whole entry, looked up): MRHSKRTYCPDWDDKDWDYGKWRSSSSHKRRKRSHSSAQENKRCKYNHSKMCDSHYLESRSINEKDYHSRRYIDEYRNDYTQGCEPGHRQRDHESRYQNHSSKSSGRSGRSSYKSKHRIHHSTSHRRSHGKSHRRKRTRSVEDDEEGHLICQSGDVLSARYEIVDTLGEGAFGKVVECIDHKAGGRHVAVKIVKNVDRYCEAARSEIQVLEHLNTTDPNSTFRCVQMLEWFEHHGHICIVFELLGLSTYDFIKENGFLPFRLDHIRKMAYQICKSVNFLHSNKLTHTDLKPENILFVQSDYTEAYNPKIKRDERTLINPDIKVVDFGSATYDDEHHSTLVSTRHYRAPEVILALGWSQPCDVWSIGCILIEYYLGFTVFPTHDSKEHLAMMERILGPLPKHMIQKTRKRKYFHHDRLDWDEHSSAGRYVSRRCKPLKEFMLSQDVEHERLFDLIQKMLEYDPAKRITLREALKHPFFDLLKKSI

NCI-H1299 [19] = test: Induction of apoptosis in human NCI-H1299 cells at 0.1 to 2.5 uM incubated for 24 hrs by annexin V-FITC/PI staining based flow cytometric analysis relative to control; format: functional; settings: dose 0.1-2.5 µM
NCI-H1299 [20] = test: Induction of apoptosis in human NCI-H1299 cells assessed as downregulation of BCL-2 expression at 0.1 to 1 uM incubated for 48 hrs by Western blotting analysis; format: functional, cell-based; settings: dose 0.1-1 µM
[21] = tested on: Osimertinib-resistant NCI-H1975 cell; test: cells; settings: Homo sapiens, 48 h
Description: Antiproliferative activity against human Osimertinib-resistant NCI-H1975 cell assessed as inhibition of cell growth incubated for 48 hrs by MTT assay

[22] = biological target: Serine/threonine-protein kinase mTOR (Homo sapiens) (UniProt P42345); test: Inhibition of mTOR phosphorylation in human NCI-H1299 cells at 0.1 to 1 uM incubated for 12 hrs by Western blotting analysis; format: cell-based; settings: dose 0.1-1 µM
[23] = biological target: T1, Dual specificity protein kinase CLK1; test: Inhibition of CLK in human NCI-H1299 cells assessed as downregulation of SRSF5 phosphorylation at 0.1 to 1 uM incubated for 1 hr by Western blotting analysis; format: cell-based; settings: dose 0.1-1 µM
NCI-H1299 [24] = test: Inhibition of Wnt pathway in human NCI-H1299 cells assessed as downregulation of Axin2 expression at 0.1 to 1 uM incubated for 48 hrs by Western blotting analysis; format: cell-based; settings: dose 0.1-1 µM
[25] = biological target: Dual specificity protein kinase CLK3 (Homo sapiens, UniProt P49761); test: Inhibition of CLK3 (unknown origin) by ADP-Glo assay
Chain of Dual specificity protein kinase CLK3 (P49761 whole entry): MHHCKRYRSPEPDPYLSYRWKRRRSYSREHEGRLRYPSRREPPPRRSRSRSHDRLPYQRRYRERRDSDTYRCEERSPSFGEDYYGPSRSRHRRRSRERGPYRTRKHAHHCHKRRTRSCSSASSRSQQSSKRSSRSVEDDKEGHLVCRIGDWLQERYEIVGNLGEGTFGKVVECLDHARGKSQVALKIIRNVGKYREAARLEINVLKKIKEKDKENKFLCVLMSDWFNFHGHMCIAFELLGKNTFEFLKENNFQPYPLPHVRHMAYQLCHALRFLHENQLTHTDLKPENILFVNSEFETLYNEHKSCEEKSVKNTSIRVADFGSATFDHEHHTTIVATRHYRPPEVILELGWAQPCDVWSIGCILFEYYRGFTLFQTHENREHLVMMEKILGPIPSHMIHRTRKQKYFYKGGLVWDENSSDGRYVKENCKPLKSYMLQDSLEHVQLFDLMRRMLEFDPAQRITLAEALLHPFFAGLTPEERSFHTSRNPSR

NCI-H1299 [26] = test: Induction of apoptosis in human NCI-H1299 cells assessed as late apoptotic cells at 1 uM incubated for 24 hrs by annexin V-FITC/PI staining based flow cytometric analysis (reference value: 2.23 %); format: functional
NCI-H1299 [27] = test: Inhibition of AKT phosphorylation in human NCI-H1299 cells at 0.1 to 1 uM incubated for 12 hrs by Western blotting analysis; format: cell-based; settings: dose 0.1-1 µM
NCI-H1299 [28] = test: cells; settings: Homo sapiens, NCI-H1299, 48 h
Description: Antiproliferative activity against human NCI-H1299 cells assessed as inhibition of cell growth incubated for 48 hrs by MTT assay

NCI-H1299 [29] = test: Induction of apoptosis in human NCI-H1299 cells assessed as late apoptotic cells at 0.25 uM incubated for 24 hrs by annexin V-FITC/PI staining based flow cytometric analysis (reference value: 2.23 %); format: functional
NCI-H1299 [30] = test: Induction of apoptosis in human NCI-H1299 cells assessed as viable cells at 0.5 uM incubated for 24 hrs by annexin V-FITC/PI staining based flow cytometric analysis (reference value: 95 %); format: functional; settings: read-out: Activity
NCI-H1299 [31] = test: Induction of apoptosis in human NCI-H1299 cells assessed as necrotic cells at 2.5 uM incubated for 24 hrs by annexin V-FITC/PI staining based flow cytometric analysis (reference value: 2.28 %); format: functional
NCI-H1299 [32] = test: Induction of apoptosis in human NCI-H1299 cells assessed as downregulation of ERK expression incubated for 48 hrs by Western blotting analysis; format: functional, cell-based
NCI-H1299 [33] = test: Induction of apoptosis in human NCI-H1299 cells assessed as viable cells at 0.25 uM incubated for 24 hrs by annexin V-FITC/PI staining based flow cytometric analysis (reference value: 95 %); format: functional; settings: read-out: Activity
NCI-H1299 [34] = test: Induction of apoptosis in human NCI-H1299 cells assessed as viable cells at 1 uM incubated for 24 hrs by annexin V-FITC/PI staining based flow cytometric analysis (reference value: 95 %); format: functional; settings: read-out: Activity

Chain of Homeodomain-interacting protein kinase 1 (Homo sapiens) (Q86Z02 whole entry, looked up): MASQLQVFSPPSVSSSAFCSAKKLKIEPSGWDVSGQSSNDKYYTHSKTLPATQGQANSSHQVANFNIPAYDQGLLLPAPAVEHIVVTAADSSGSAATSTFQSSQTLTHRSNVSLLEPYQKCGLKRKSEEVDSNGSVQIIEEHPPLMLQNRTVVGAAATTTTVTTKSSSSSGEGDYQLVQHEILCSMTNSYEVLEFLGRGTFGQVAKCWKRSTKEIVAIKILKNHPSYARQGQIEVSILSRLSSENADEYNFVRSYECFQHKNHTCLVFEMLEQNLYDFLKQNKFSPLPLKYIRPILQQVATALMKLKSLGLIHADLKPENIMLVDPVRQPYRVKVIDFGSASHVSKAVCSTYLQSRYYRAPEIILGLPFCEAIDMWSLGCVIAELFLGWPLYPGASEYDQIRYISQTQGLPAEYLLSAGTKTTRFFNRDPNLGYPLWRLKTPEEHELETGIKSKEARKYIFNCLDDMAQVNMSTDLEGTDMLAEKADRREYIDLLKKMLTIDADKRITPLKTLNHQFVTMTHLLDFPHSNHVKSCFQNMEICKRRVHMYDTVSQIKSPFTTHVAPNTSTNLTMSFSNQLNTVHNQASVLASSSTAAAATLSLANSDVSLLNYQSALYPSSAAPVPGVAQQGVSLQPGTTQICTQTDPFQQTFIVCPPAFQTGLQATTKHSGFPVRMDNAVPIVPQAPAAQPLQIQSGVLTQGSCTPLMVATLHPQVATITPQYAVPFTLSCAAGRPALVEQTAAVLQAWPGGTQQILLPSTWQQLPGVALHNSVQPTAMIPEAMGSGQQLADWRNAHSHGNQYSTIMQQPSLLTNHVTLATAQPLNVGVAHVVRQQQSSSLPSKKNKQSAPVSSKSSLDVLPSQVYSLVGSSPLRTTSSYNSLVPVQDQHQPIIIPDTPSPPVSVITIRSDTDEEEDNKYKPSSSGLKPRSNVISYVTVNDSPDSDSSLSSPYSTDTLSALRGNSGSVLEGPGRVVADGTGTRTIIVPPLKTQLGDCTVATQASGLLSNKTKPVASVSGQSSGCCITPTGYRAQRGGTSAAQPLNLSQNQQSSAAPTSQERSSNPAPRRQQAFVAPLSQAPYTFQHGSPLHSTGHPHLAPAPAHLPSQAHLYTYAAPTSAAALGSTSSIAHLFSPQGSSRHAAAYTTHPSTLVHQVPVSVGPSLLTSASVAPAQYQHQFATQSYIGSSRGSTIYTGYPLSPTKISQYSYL

- inhibition [1]: 51.4%
- IC50 (NCI-H1975): 150 nM
- IC50 [12]: 238 nM
- inhibition [16]: 84.4%
- IC50 [21]: 210 nM
- inhibition [22]: Active
- IC50 [25]: 28.7 nM
- IC50 (NCI-H1299 [28]): 130 nM
Structure (SMILES): FC1(F)CCN(Cc2cncc(-c3ccc4[nH]nc(-c5nc(-c6ccco6)c(-c6ccco6)[nH]5)c4c3)c2)C1
- Activity (NCI-H1299 [2]): Active
- Activity (NCI-H1299 [3]): 5.16%
- Activity (NCI-H1299 [4]): Active
- Activity (NCI-H1299 [5]): Dose-dependent-effect
- viability at 2.5 µM (NCI-H1299 [6]): 82%
- Activity (NCI-H1299 [7]): 8.27%
- Activity (NCI-H1299 [8]): 0.74%
- Activity (NCI-H1299 [9]): Dose-dependent-effect
- Activity (NCI-H1299 [10]): Active
- Activity (NCI-H1299 [11]): 1.78%
- Activity (NCI-H1299 [13]): 1.26%
- Activity (NCI-H1299 [14]): Active
- inhibition (NCI-H1299 [15]): Active
- inhibition (NCI-H1299 [17]): Dose-dependent-effect
- inhibition [18]: Active; Showed Stronger Inhibition Compared To Indazole 1
- Activity (NCI-H1299 [19]): 3.7%
- Activity (NCI-H1299 [20]): Active
- inhibition [23]: Active; Showed Stronger Inhibition Compared To Indazole 1
- inhibition (NCI-H1299 [24]): Active
- Activity (NCI-H1299 [26]): 5.23%
- inhibition (NCI-H1299 [27]): Active
- Activity (NCI-H1299 [29]): 2.55%
- viability at 0.5 µM (NCI-H1299 [30]): 85.7%
- Activity (NCI-H1299 [31]): 1.6%
- Activity (NCI-H1299 [32]): Dose-dependent-effect
- viability at 0.25 µM (NCI-H1299 [33]): 92.1%
- viability at 1 µM (NCI-H1299 [34]): 84.3%

— ChEMBL document CHEMBL6092179, “Discovery of CLKs inhibitors for the treatment of non-small cell lung cancer” (Eur J Med Chem, 2024)
